From patent US11931424B2, “Combination MCL-1 inhibitors with anti-body drug conjugates” (Gilead Sciences, Inc., priority 2021, dated 2024)

Tested on: panel of breast cancer cell lines
Assay: Compound A with targeted agents and chemotherapies, 72-hour in vitro proliferation assays
Format: cell-based
Details: 72-hour proliferation
[1] = AU565 cell line, compound A × partner
[2] = BT-20 cell line, compound A × partner
[3] = BT-474 cell line, compound A × partner
[4] = BT-549 cell line, compound A × partner
[5] = CAL-51 cell line, compound A × partner
[6] = CAL-85-1 cell line, compound A × partner
[7] = CAL-120 cell line, compound A × partner
[8] = CAL-148 cell line, compound A × partner
[9] = CAMA-1 cell line, compound A × partner
[10] = DU-4475 cell line, compound A × partner
[11] = EVSA-T cell line, compound A × partner
[12] = MCF7 cells, Compound A × partner agent
[13] = MDA-MB-175-VII cells, Compound A × partner agent
[14] = MDA-MB-231 cells, Compound A × partner agent
[15] = MDA-MB-361 cells, Compound A × partner agent
[16] = MDA-MB-436 cells, Compound A × partner agent
[17] = MDA-MB-453 cells, Compound A × partner agent
[18] = MDA-MB-468 cells, Compound A × partner agent
[19] = SK-BR-3 cells, Compound A × partner agent
[20] = SUM159PT cells, combination of compound A with the named agent
[21] = T47D cells, combination of compound A with the named agent
[22] = ZR-75-1 cells, combination of compound A with the named agent
[23] = ZR-75-30 cells, combination of compound A with the named agent

SMILES: CO[C@H]1C[C@@H]2CC[C@@H](C)[C@@](O)(O2)C(=O)C(=O)N2CCCC[C@H]2C(=O)O[C@H]([C@H](C)C[C@@H]2CC[C@@H](OCCO)[C@H](OC)C2)CC(=O)[C@H](C)/C=C(\C)[C@@H](O)[C@@H](OC)C(=O)[C@H](C)C[C@H](C)/C=C/C=C/C=C/1C [Everolimus]
- Bliss Volume [1]: 5.68
- HSA volume [1]: 2.64
- Loewe Volume [1]: 3.01
- Synergy Score [1]: 3.02
- Bliss Volume [2]: 8.37
- HSA volume [2]: 8.23
- Loewe Volume [2]: 7.02
- Synergy Score [2]: 11.08
- Bliss Volume [3]: 3.26
- HSA volume [3]: −1.26
- Loewe Volume [3]: −2.71
- Synergy Score [3]: 2.41
- Bliss Volume [4]: 5.93
- HSA volume [4]: 8.22
- Loewe Volume [4]: 7.87
- Synergy Score [4]: 7.35
- Bliss Volume [5]: −2.55
- HSA volume [5]: 0.45
- Loewe Volume [5]: 0.41
- Synergy Score [5]: 1.34
- Bliss Volume [6]: 10.37
- HSA volume [6]: 14.41
- Loewe Volume [6]: 13.60
- Synergy Score [6]: 16.26
- Bliss Volume [7]: −2.79
- HSA volume [7]: −1.61
- Loewe Volume [7]: −1.62
- Synergy Score [7]: 0.53
- Bliss Volume [8]: 5.67
- HSA volume [8]: 9.58
- Loewe Volume [8]: 8.56
- Synergy Score [8]: 18.16
- Bliss Volume [9]: 10.06
- HSA volume [9]: 2.71
- Loewe Volume [9]: 3.20
- Synergy Score [9]: 7.90
- Bliss Volume [10]: 4.29
- HSA volume [10]: 1.94
- Loewe Volume [10]: 0.97
- Synergy Score [10]: 2.43
- Bliss Volume [11]: 10.56
- HSA volume [11]: −0.76
- Loewe Volume [11]: −1.22
- Synergy Score [11]: 1.85
- Bliss Volume (HCC38, compound A × partner): −6.70
- HSA volume (HCC38, compound A × partner): −1.96
- Loewe Volume (HCC38, compound A × partner): −2.56
- Synergy Score (HCC38, compound A × partner): 2.18
- Bliss Volume (HCC70, compound A × partner): 9.56
- HSA volume (HCC70, compound A × partner): 8.83
- Loewe Volume (HCC70, compound A × partner): 6.84
- Synergy Score (HCC70, compound A × partner): 11.30
- Bliss Volume (HCC1143, compound A × partner): 8.68
- HSA volume (HCC1143, compound A × partner): 8.45
- Loewe Volume (HCC1143, compound A × partner): 10.21
- Synergy Score (HCC1143, compound A × partner): 9.36
- Bliss Volume (HCC1569, compound A × partner): 2.35
- HSA volume (HCC1569, compound A × partner): 5.10
- Loewe Volume (HCC1569, compound A × partner): 4.65
- Synergy Score (HCC1569, compound A × partner): 3.45
- Bliss Volume (HCC1806, compound A × partner): 5.19
- HSA volume (HCC1806, compound A × partner): 2.88
- Loewe Volume (HCC1806, compound A × partner): 5.59
- Synergy Score (HCC1806, compound A × partner): 2.52
- Bliss Volume (HCC1937, compound A × partner): 1.96
- HSA volume (HCC1937, compound A × partner): 3.68
- Loewe Volume (HCC1937, compound A × partner): 4.63
- Synergy Score (HCC1937, compound A × partner): 4.89
- Bliss Volume (HCC1954, compound A × partner): 20.04
- HSA volume (HCC1954, compound A × partner): 23.41
- Loewe Volume (HCC1954, compound A × partner): 21.71
- Synergy Score (HCC1954, compound A × partner): 36.09
- Bliss Volume (HCC2218, compound A × partner): −0.77
- HSA volume (HCC2218, compound A × partner): −0.63
- Loewe Volume (HCC2218, compound A × partner): −2.03
- Synergy Score (HCC2218, compound A × partner): 3.37
- Bliss Volume (HDQ-P1, compound A × partner): 6.97
- HSA volume (HDQ-P1, compound A × partner): −1.39
- Loewe Volume (HDQ-P1, compound A × partner): 6.48
- Synergy Score (HDQ-P1, compound A × partner): 2.04
- Bliss Volume (HMC-1-8, compound A × partner): 9.19
- HSA volume (HMC-1-8, compound A × partner): 5.60
- Loewe Volume (HMC-1-8, compound A × partner): 5.97
- Synergy Score (HMC-1-8, compound A × partner): 9.41
- Bliss Volume (JIMT-1, compound A × partner): 5.29
- HSA volume (JIMT-1, compound A × partner): 2.41
- Loewe Volume (JIMT-1, compound A × partner): 1.96
- Synergy Score (JIMT-1, compound A × partner): 1.56
- Best CI (KPL-1, compound A × partner): 0.45
- Best CI Level (KPL-1, compound A × partner): 95
- Bliss Volume (KPL-1, compound A × partner): 2.85
- HSA volume (KPL-1, compound A × partner): 5.14
- Loewe Volume (KPL-1, compound A × partner): 4.93
- Synergy Score (KPL-1, compound A × partner): 6.00
- Bliss Volume [12]: 6.88
- HSA volume [12]: 7.73
- Loewe Volume [12]: 6.93
- Synergy Score [12]: 9.72
- Bliss Volume [13]: 9.10
- HSA volume [13]: 4.72
- Loewe Volume [13]: 4.62
- Synergy Score [13]: 10.26
- Bliss Volume [14]: 0.30
- HSA volume [14]: 2.64
- Loewe Volume [14]: 3.33
- Synergy Score [14]: 2.06
- Bliss Volume [15]: 5.72
- HSA volume [15]: 4.93
- Loewe Volume [15]: 3.91
- Synergy Score [15]: 8.70
- Bliss Volume [16]: 2.45
- HSA volume [16]: 4.01
- Loewe Volume [16]: 3.66
- Synergy Score [16]: 2.25
- Bliss Volume [17]: 3.87
- HSA volume [17]: 0.04
- Loewe Volume [17]: −0.98
- Synergy Score [17]: 5.75
- Bliss Volume [18]: 11.63
- HSA volume [18]: 9.14
- Loewe Volume [18]: 7.97
- Synergy Score [18]: 15.60
- Bliss Volume [19]: 7.76
- HSA volume [19]: 3.46
- Loewe Volume [19]: 2.55
- Synergy Score [19]: 4.58
- Bliss Volume [20]: 0.61
- HSA volume [20]: 1.27
- Loewe Volume [20]: 0.66
- Synergy Score [20]: 1.12
- Bliss Volume [21]: −0.21
- HSA volume [21]: 2.87
- Loewe Volume [21]: 2.69
- Synergy Score [21]: 3.70
- Bliss Volume [22]: 3.52
- HSA volume [22]: 5.12
- Loewe Volume [22]: 4.67
- Synergy Score [22]: 5.68
- Bliss Volume [23]: 3.82
- HSA volume [23]: 4.76
- Loewe Volume [23]: 4.25
- Synergy Score [23]: 7.22
